# Data published in patent US12377167B2, “Application of AuCs or substances containing AuCs in the preparation of drugs for preventing and/or treating glaucoma” (Shenzhen Profound-View Pharma Tech Co., Ltd, priority 2016, dated 2025).
# Columns and labels:
# RGC-5 cells [1] = assay: H2O2-induced RGC-5 cell oxidative stress injury model, CCK-8 cell viability; assay type: cell-based
# Procedure: (§1) The cell viability was used as an index in the experiment of this embodiment.
# RGC-5 cells in logarithmic growth phase were diluted with complete medium (MEM+10% FBS+1% penicillin-streptomycin) to get a cell suspension in a density of 5×10^4/mL. The suspension was inoculated 100 μL per well into a 96-well plate, and cultivated in an incubator with 5% CO2 at 37° C. One of administration ways in an experiment group is: The original culture medium was removed when the cells attached to the wells, and 50 μL test substances (the test substances were: three kinds of L-NIBC-modified AuCs in particle sizes of 2.6 nm, 1.8 nm or 1.1 nm, or four kinds of L-NIBC-modified gold nanoparticles in particle sizes of 18.2 nm, 10.1 nm, 6.0 nm or 3.6 nm, or L-NIBC molecules not bonded with AuCs or gold nanoparticles as reference) solutions at different concentrations prepared by maintenance medium (DMEM medium+2% FBS+1% penicillin-streptomycin) were added to different wells to make the final concentration be 0.01, 0.05, 0.1, 0.5, 1, 5 and 10 ppm respectively, then 50 μL of H2O2 (the final concentration was 100 μM) was added to the administration group and model group after 2 hours' pretreatment. The cells were incubated for 24 h, then 10% CCK-8 was added to each well and incubated for 4 h. […]
# RGC-5 cells [2] = assay: NMDA-induced RGC-5 cell excitotoxicity model, CCK-8; assay type: cell-based; details: 250 μM NMDA, 0.01-10 ppm
# Procedure: This embodiment used cell survival rate as an index.
# RGC-5 cells in logarithmic growth phase were diluted with complete medium to get a cell suspension in a density of 5×10^4/mL. The suspension was inoculated 100 μL per well into a 96-well plate, and cultivated in an incubator with 5% CO2 at 37° C. One of administration ways in an experiment group is: The original culture medium was removed when the cells attached to the wells, and 50 μL test substances (the test substances were: three kinds of L-NIBC-modified AuCs in particle sizes of 2.6 nm, 1.8 nm or 1.1 nm, or four kinds of L-NIBC-modified gold nanoparticles in particle sizes of 18.2 nm, 10.1 nm, 6.0 nm or 3.6 nm, or L-NIBC molecules not bonded with AuCs or gold nanoparticles as reference) solutions at different concentrations prepared by maintenance medium were added to different wells to make the final concentration be 0.01, 0.05, 0.1, 0.5, 1, 5 and 10 ppm respectively, then 50 μL of NMDA (the final concentration was 250 μM) was added to the administration group and model group after 2 hours' pretreatment. […] The absorbance value of each well at 450 nm wave length was measured to evaluate the pre-protective effect of AuCs on NMDA injury. […] The absorbance value of each well at 450 nm wave length was measured to evaluate the curative effect of AuCs on NMDA injury. […]
# Aβ(1-40) [3] = target: T1, Aβ(1-40) (Homo sapiens, UniProt P05067); assay: In vitro Aβ(1-40) aggregation kinetics, ThT fluorescent labeling method; assay type: biochemical; details: 20 μM Aβ(1-40); L-NIBC 1.0 and 10.0 ppm; gold nanoparticles up to 20.0 ppm
# T1 construct: Freeze-dried powder of amyloid polypeptide Aβ(1-40) (Invitrogen Corp.); purchased Invitrogen Corp
# From the text: As described above, Aβ plays an important role in the pathogenesis of glaucoma and is an important target for treatment of glaucoma based on the optic nerve protection mechanism. […] Moreover, the function is from AuCs other than ligand. […] Thioflavin T (abbreviation: ThT) is a dye specifically for dyeing amyloid fibers. […] When it encounters amyloid polypeptides or proteins with a fiber structure, it will immediately couple with the amyloid polypeptides or proteins and its fluorescence intensity will increase exponentially. Just because of this property, ThT is widely used as a marker to monitor amyloidosis of peptides or proteins. The fibrosis process of Aβ(1-40) is also a nucleation-controlled polymerization process. Therefore, the growth curve of Aβ(1-40) fiber measured by ThT fluorescent labeling method is mainly divided into three stages: Initial stage, growth stage and platform stage. The initial stage is mainly a stage when Aβ(1-40) undergoes conformational transition to form misfolding and then aggregates and nucleates. […] All the Aβ(1-40) PBS solutions for the experiments were prepared freshly. […] The samples were incubated continuously in a 96-well plate at 37° C. by ThT fluorescent labeling method, and monitored the fluorescence intensity by microplate reader once every 10 minutes.
# Aβ(1-40) [4] = target: T1, Aβ(1-40); assay: AFM topography of Aβ(1-40) after 48 h co-incubation; assay type: biochemical; details: co-incubated for 48 h
# Procedure: Panel A is the AFM topography after Aβ(1-40) was incubated alone for 48 h. Panel B is an AFM topography after Aβ(1-40) was coincubated with L-NIBC for 48 h. Panel C and panel D are AFM topographies after Aβ(1-40) was coincubated with gold nanoparticles with an average particle size of 6.0 nm and 3.6 nm respectively (modified with L-NIBC) for 48 h. And panel E is an AFM topography after Aβ(1-40) was coincubated with AuCs in an average particle size of 1.8 nm (modified with L-NIBC) for 48 h.
# RGC-5 cells [5] = assay: Sodium nitroprusside (SNP)-induced RGC-5 apoptosis model, CCK-8 cell viability; assay type: cell-based
# Procedure: as §1
# RGC-5 cells in logarithmic growth phase were diluted with complete medium to get a cell suspension in a density of 5×10^4/mL. The suspension was inoculated 100 μL per well into a 96-well plate, and cultivated in an incubator with 5% CO2 at 37° C. […] The absorbance value of each well at 450 nm wave length was measured to evaluate the pre-protective effect of AuCs on SNP injury. […] The absorbance value of each well at 450 nm wave length was measured to evaluate the curative effect of AuCs on SNP injury. […]
# RGC-5 cells in logarithmic growth phase were diluted with complete medium to get a cell suspension in a density of 5×10^4/mL. […] The absorbance value of each well at 450 nm wave length was measured to evaluate the pre-protective effect of AuCs on SNP injury. […]
# T1 sequence (P05067 672-711 limits assumed): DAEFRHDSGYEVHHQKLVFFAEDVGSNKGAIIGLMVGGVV
smiles,measurement,setting,value
"CC(C)C(=O)N[C@@H](CS)C(=O)O [L-NIBC, N-isobutyryl-L-cysteine]",effect on cell viability / RGC apoptosis triggered by oxidative stress,"RGC-5 cells [1]; H2O2-injured RGC cell model, CCK-8",did not have an obvious effect
same,viability at 10 ppm,"RGC-5 cells [1]; RGC5, 10 ppm, H2O2, 24 h, read-out: cell viability relative to the blank control group (set to be 100%)",47.5 ± 6.6%
same,effect on cell viability / neurotransmitter mediated excitatory RGC apoptosis,RGC-5 cells [2],did not have an obvious effect
same,effect on Aβ(1-40) amyloidosis kinetics,Aβ(1-40) [3],no obvious effect on Aβ(1-40) amyloidosis kinetics
same,Aβ(1-40) fibers in AFM topography,Aβ(1-40) [4],no obvious effect on the formation of Aβ(1-40) fibers
same,viability at 10 ppm,"RGC-5 cells [5]; RGC5, 10 ppm, 700 μM SNP, 24 h, read-out: cell viability relative to the blank control group (set to be 100%)",52.8 ± 8%
same,effect on cell viability / SNP-induced RGC apoptosis,"RGC-5 cells [5]; SNP-injured RGC cell model, CCK-8",did not have an obvious protective effect
